A value given as a limit tells only on which side of the number the result lay.

The test system of one assay is A-431. The assay can be described thus: Inhibitory activity against proliferation of human epidermoid carcinoma (A431) cells. Type of assay: functional, cell-based.
The species entered for a further assay is Gallus gallus. Nature of the assay: Anti-angiogenic activity was assessed by inhibition of the vascular growth in the chick embryo chorioallantoic membrane (CAM assay) at 125 nM. Type of assay: functional, tissue-based.
The subject of a further assay is L1210. Nature of the assay: Inhibitory activity against proliferation of murine leukemia (L1210) cells. The class given is functional, cell-based. The following applies: Mus musculus.

Usually IC50 stands for the midpoint of a concentration-inhibition curve. Read a high IC50 as weaker potency in that assay. What is called inhibition is the relative decrease from the control value, in per cent. A high value points to strong suppression. In the case of `CCCCCCC[C@@]1(C)O[C@@H]2OC(=O)N(C(=O)CCl)[C@@H]2CC1=O`, the IC50 in the assay with A-431 amounted to 78 µM; in the assay on L1210, 28 µM. Also, the inhibition in the assay listed under Gallus gallus stood at 60%.

On to `CCCCCC1OC1[C@@]1(C)O[C@@H]2OC(=O)N(C(=O)CCl)[C@@H]2C[C@]12CO2` (stereo partly drawn), for which the IC50 with A-431 stood at 33 µM; in the assay on L1210, 22 µM. The compound also showed an inhibition in the assay listed under Gallus gallus of 19%.

In the case of `CCCCCCC[C@H]1O[C@@H]2OC(=O)N(C(=O)CCl)[C@@H]2CC1=O`, the IC50 in the assay on A-431 turned out to be 79 µM; in the assay with L1210, 96 µM. The inhibition in the assay filed under Gallus gallus worked out at 87%.

In the case of `CCCCC/C=C/[C@@]1(C)O[C@@H]2OC(=O)N(C(=O)CCl)[C@@H]2CC1=O`, the IC50 with A-431 and in the assay on L1210 was 81 µM throughout. The inhibition in the assay listed under Gallus gallus is 50%.

Consider `COC#C[C@@]1(C)O[C@@H]2OC(=O)N(C(=O)CCl)[C@@H]2CC1=O`, for which the IC50 in the assay with A-431 was 64 µM; in the assay on L1210 it was 74 µM. This compound returned an inhibition in the assay listed under Gallus gallus of 60%.

For `C[C@]1(C#CCCCCc2ccccc2)O[C@@H]2OC(=O)N(C(=O)CCl)[C@@H]2CC1=O`, the IC50 in the assay on A-431 came out at 56 µM; with L1210, 27 µM. In the assay listed under Gallus gallus, this compound returned an inhibition of 60%.

Take `CCCCCC#C[C@@]1(C)O[C@@H]2OC(=O)N(C(=O)CCl)[C@@H]2CC1=O`: the IC50 was determined as 47 µM in the assay with A-431 and 31 µM with L1210. This compound also yielded an inhibition in the assay listed under Gallus gallus of 70%.

As for `CCCCCC1OC1[C@@]1(C)O[C@@H]2OC(=O)N(C(=O)CCl)[C@@H]2C[C@@]12CO2` (stereo partly drawn), the IC50 with A-431 stood at 93 µM; in the assay on L1210, 89 µM.

With `CCCCCC#C[C@@]1(C)O[C@@H]2OC(=O)N(C(=O)CCl)[C@@H]2C[C@@H]1O`, the figures for the IC50 with A-431 and in the assay on L1210 were 52 µM and greater than 100 µM, respectively. In the assay filed under Gallus gallus, this compound displayed an inhibition of 40%.

With `CCCCCC1OC1[C@@]1(C)O[C@@H]2OC(=O)N(C(=O)CCl)[C@@H]2CC1=O` (stereo partly drawn), the values for the IC50 in the assay with A-431 and in the assay with L1210 were 116 µM and 193 µM, respectively. In the assay filed under Gallus gallus, this compound displayed an inhibition of 58%.

Take `CCCCCC#C[C@]1(C)O[C@@H]2OC(=O)N(C(=O)CCl)[C@@H]2CC1=O`: the IC50 with A-431 was determined as 5 µM; in the assay with L1210 it was 32 µM. The compound further had an inhibition in the assay filed under Gallus gallus of 50%.

Take `CO[C@@H]1[C@H](OC(=O)/C=C/C=C/C=C/C=C/C(=O)O)CC[C@]2(CO2)[C@H]1[C@@]1(C)O[C@@H]1CC=C(C)C` [FUMAGILLIN]: the 50% inhibitory concentration (IC50) with A-431 worked out at 5 µM; in the assay with L1210 it was 8 µM. Besides, the inhibition in the assay listed under Gallus gallus was found to be 85%.

With `CCCCCC#C[C@@]1(C)O[C@@H]2OC(=O)N(C(=O)CCl)[C@@H]2C[C@H]1O`, the IC50 in the assay on A-431 was 75 µM; in the assay on L1210, greater than 100 µM. This compound yielded an inhibition in the assay filed under Gallus gallus of 25%.

(Values after ChEMBL document CHEMBL1135124, “Novel bicyclic oxazolone derivatives as anti-angiogenic agents” (Bioorg Med Chem Lett, 2002).)
